The source of these data is ChEMBL document CHEMBL3872244, “Synthesis, evaluation and molecular modelling studies of 2-(carbazol-3-yl)-2-oxoacetamide analogues as a new class of potential pancreatic lipase inhibitors” (Bioorg Med Chem, 2017).

Data set [1] concerns the target T1, Pancreatic triacylglycerol lipase (Sus scrofa, UniProt P00591).
T1 sequence (P00591 whole entry): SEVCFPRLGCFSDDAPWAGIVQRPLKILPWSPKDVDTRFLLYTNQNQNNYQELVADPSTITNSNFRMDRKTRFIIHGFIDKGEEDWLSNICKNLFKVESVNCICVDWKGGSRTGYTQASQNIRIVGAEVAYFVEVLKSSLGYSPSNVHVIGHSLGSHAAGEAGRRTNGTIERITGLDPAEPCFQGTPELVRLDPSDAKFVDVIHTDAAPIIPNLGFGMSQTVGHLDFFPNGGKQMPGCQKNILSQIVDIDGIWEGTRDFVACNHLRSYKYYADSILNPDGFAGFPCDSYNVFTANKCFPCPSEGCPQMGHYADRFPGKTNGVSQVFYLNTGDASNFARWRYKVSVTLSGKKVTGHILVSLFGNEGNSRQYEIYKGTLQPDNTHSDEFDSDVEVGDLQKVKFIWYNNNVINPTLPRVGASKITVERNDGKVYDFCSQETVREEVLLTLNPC
Briefly: Inhibition of porcine pancreatic lipase assessed as reduction in 4-nitrophenol formation from 4-nitrophenyl butyrate substrate preincubated for 30 mins followed by substrate addition measured after 5 mins by spectrophotometer.

The target in data set [2] is T2, Pancreatic triacylglycerol lipase (Homo sapiens, UniProt P16233).
T2 sequence (P16233 whole entry): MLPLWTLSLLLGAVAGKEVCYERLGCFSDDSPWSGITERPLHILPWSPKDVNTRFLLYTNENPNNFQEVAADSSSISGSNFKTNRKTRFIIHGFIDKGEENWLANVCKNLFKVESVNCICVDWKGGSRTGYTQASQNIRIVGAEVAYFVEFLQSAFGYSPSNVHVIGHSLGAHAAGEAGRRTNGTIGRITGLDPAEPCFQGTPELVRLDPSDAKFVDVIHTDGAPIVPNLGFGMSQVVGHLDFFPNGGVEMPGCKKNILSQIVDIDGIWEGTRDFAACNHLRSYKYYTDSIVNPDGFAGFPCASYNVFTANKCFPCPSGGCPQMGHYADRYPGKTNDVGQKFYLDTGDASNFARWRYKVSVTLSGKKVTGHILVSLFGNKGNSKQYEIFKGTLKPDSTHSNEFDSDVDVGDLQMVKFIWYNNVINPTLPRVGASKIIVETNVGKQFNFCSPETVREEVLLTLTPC
Put plainly: Inhibition of pancreatic lipase (unknown origin).

Data set [3] has as its target T3, Pancreatic triacylglycerol lipase (Sus scrofa) (UniProt P00591).
T3 sequence (whole entry): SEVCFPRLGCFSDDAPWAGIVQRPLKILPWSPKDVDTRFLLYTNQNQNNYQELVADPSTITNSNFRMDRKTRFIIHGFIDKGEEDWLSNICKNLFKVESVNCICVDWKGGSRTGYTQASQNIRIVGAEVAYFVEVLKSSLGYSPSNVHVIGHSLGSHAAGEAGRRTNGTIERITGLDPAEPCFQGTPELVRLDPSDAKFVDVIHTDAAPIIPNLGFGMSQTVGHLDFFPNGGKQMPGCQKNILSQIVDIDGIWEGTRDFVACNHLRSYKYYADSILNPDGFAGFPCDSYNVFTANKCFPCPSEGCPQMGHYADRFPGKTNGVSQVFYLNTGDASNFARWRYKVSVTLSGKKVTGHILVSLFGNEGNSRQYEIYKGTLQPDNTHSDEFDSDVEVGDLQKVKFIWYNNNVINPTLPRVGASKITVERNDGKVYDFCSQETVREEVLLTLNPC
Put plainly: Inhibition of porcine pancreatic lipase using tributyrin as substrate preincubated for 30 mins measured at 1 min time interval for 5 mins in presence of NaTDC in reaction mixture by pH-Stat method.

Data set [4] concerns the target T3, Pancreatic triacylglycerol lipase (Sus scrofa). Briefly: Inhibition of porcine pancreatic lipase using tributyrin as substrate incubated for 30 mins measured at 1 min time interval for 5 mins in presence of NaTDC in incubation medium by pH-Stat method.
Data set [5] addresses T1, Pancreatic triacylglycerol lipase. Briefly: Competitive inhibition of porcine pancreatic lipase 4-nitrophenyl butyrate substrate preincubated for 30 mins followed by substrate addition measured after 5 mins by Dixon plot method.
Compound in data set [6]: COc1cc(NC(=O)C(=O)c2ccc3[nH]c4ccccc4c3c2)cc(OC)c1OC
Briefly: (§1) Competitive inhibition of porcine pancreatic lipase assessed as enzyme Km at 5 uM in presence of varying levels of 4-nitophenyl butyrate by Lineweaver-burk plot method. The conditions noted are these: Sus scrofa.

Compound in data set [7]: CCCCCCCCCCC[C@@H](C[C@@H]1OC(=O)[C@H]1CCCCCC)OC(=O)[C@H](CC(C)C)NC=O
Described as §1. The following applies: Sus scrofa.

Compound in data set [8]: COc1ccc(NC(=O)C(=O)c2ccc3c(c2)c2ccccc2n3Cc2ccc(Cl)cc2)cc1OC
The description is as §1. The following applies: Sus scrofa.

Compound in data set [9]: COc1cc(NC(=O)C(=O)c2ccc3c(c2)c2ccccc2n3Cc2ccc(Cl)cc2)cc(OC)c1OC
The description is as §1. The conditions noted are these: Sus scrofa.

Compound in data set [10]: COc1cc(NC(=O)C(=O)c2ccc3[nH]c4ccccc4c3c2)cc(OC)c1OC
Put plainly: (§2) Competitive inhibition of porcine pancreatic lipase assessed as enzyme Km at 20 uM in presence of varying levels of 4-nitophenyl butyrate by Lineweaver-burk plot method. The following applies: Sus scrofa.

Compound in data set [11]: CCCCCCCCCCC[C@@H](C[C@@H]1OC(=O)[C@H]1CCCCCC)OC(=O)[C@H](CC(C)C)NC=O
Described as §2. The following applies: Sus scrofa.

Compound in data set [12]: COc1ccc(NC(=O)C(=O)c2ccc3c(c2)c2ccccc2n3Cc2ccc(Cl)cc2)cc1OC
Described as §2. The following applies: Sus scrofa.

Compound in data set [13]: COc1cc(NC(=O)C(=O)c2ccc3c(c2)c2ccccc2n3Cc2ccc(Cl)cc2)cc(OC)c1OC
Described as §2. The following applies: Sus scrofa.

Compound in data set [14]: COc1cc(NC(=O)C(=O)c2ccc3[nH]c4ccccc4c3c2)cc(OC)c1OC
Briefly: (§3) Competitive inhibition of porcine pancreatic lipase assessed as enzyme Km at 10 uM in presence of varying levels of 4-nitophenyl butyrate by Lineweaver-burk plot method. The conditions noted are these: Sus scrofa.

Compound in data set [15]: CCCCCCCCCCC[C@@H](C[C@@H]1OC(=O)[C@H]1CCCCCC)OC(=O)[C@H](CC(C)C)NC=O
The data set is described as §3. The conditions noted are these: Sus scrofa.

Compound in data set [16]: COc1ccc(NC(=O)C(=O)c2ccc3c(c2)c2ccccc2n3Cc2ccc(Cl)cc2)cc1OC
The description is as §3. The conditions noted are these: Sus scrofa.

Compound in data set [17]: COc1cc(NC(=O)C(=O)c2ccc3c(c2)c2ccccc2n3Cc2ccc(Cl)cc2)cc(OC)c1OC
The description is as §3. The following applies: Sus scrofa.

Compound in data set [18]: COc1cc(NC(=O)C(=O)c2ccc3[nH]c4ccccc4c3c2)cc(OC)c1OC
Briefly: (§4) Competitive inhibition of porcine pancreatic lipase assessed as enzyme Vmax in presence of varying levels of 4-nitophenyl butyrate by Lineweaver-burk plot method. The conditions noted are these: Sus scrofa.

Compound in data set [19]: CCCCCCCCCCC[C@@H](C[C@@H]1OC(=O)[C@H]1CCCCCC)OC(=O)[C@H](CC(C)C)NC=O
The data set is described as §4. The following applies: Sus scrofa.

Compound in data set [20]: COc1ccc(NC(=O)C(=O)c2ccc3c(c2)c2ccccc2n3Cc2ccc(Cl)cc2)cc1OC
The description is as §4. The following applies: Sus scrofa.

Compound in data set [21]: COc1cc(NC(=O)C(=O)c2ccc3c(c2)c2ccccc2n3Cc2ccc(Cl)cc2)cc(OC)c1OC
The data set is described as §4. The conditions noted are these: Sus scrofa.

The source made the active and inactive calls. The calls are words filed in the database; no cut-off is given here.

Take `O=C(Nc1ccccc1)C(=O)c1ccc2[nH]c3ccccc3c2c1`: the half-maximal inhibitory concentration (IC50) – broadly, the point on the concentration scale where inhibition reaches its midpoint – in [1] was found to be 29.7 µM.
As for `COc1cc2[nH]c3c4c(c(C)cc3c2cc1OC)OC(C)(C)C=C4`, in data set [2], 429 µM corresponded to half-maximal inhibition (IC50).
Take `COc1cc(NC(=O)C(=O)c2ccc3c(c2)c2ccccc2n3Cc2ccc(Cl)cc2)cc(OC)c1OC`: the XI50 in data set [3] amounted to 21.9. For the same molecule, the inhibition entry in [4] was “Active”. Besides, in data set [5], the affinity corresponds to a Ki of 19.6 µM. Also, the concentration for half-maximal inhibition (IC50) in data set [1] is 8.72 µM.
Take `Cc1ccc(NC(=O)C(=O)c2ccc3c(c2)c2ccccc2n3Cc2ccc(Cl)cc2)cc1`: the IC50 in data set [1] turned out to be 13.5 µM.
As for `CCn1c2ccccc2c2cc(C(=O)C(=O)Nc3ccc4ncccc4c3)ccc21`, the IC50 in data set [1] was 15.5 µM.
With `COc1ccc(NC(=O)C(=O)c2ccc3[nH]c4ccccc4c3c2)cc1OC`, the IC50 in data set [1] came out at 44.1 µM.
`COc1ccc2[nH]c3c4c(c(C)cc3c2c1)OC(C)(C)C=C4` [KOENIMBINE] came in with an IC50 in data set [2] of 169 µM.
As for `CN(C)c1ccc(NC(=O)C(=O)c2ccc3c(c2)c2ccccc2n3Cc2ccc(Cl)cc2)cc1`, the half-maximal inhibitory concentration (IC50) in data set [1] stood at 14.8 µM.
On to `Cc1cnc(NC(=O)C(=O)c2ccc3c(c2)c2ccccc2n3Cc2ccc(Cl)cc2)s1`, for which the IC50 in data set [1] is 32.8 µM.
Regarding `COc1cc(NC(=O)C(=O)c2ccc3[nH]c4ccccc4c3c2)cc(OC)c1OC`, the XI50 in data set [3] was found to be 26.2. Moreover, the inhibition result in [4] was “Active”. The inhibition constant Ki (as a rule, a measure of affinity in units of concentration, obtained from inhibition or displacement) in [5] was 21.6 µM. Besides, in data set [1], the IC50 stood at 9.58 µM.
`O=C(Nc1ccc(F)cc1)C(=O)c1ccc2c(c1)c1ccccc1n2Cc1ccc(Cl)cc1`: the IC50 in data set [1] was 28 µM.
Still for that read-out and setting: the value for `CCn1c2ccccc2c2cc(C(=O)C(=O)Nc3cc(OC)c(OC)c(OC)c3)ccc21` was 11.4 µM; that for `COc1cccc(NC(=O)C(=O)c2ccc3[nH]c4ccccc4c3c2)c1` was 33 µM; that for `CCn1c2ccccc2c2cc(C(=O)C(=O)Nc3ccc(OC)c(OC)c3)ccc21` was 16.4 µM.
For `COc1cccc(NC(=O)C(=O)c2ccc3c(c2)c2ccccc2n3Cc2ccc(Cl)cc2)c1`, the IC50 in [1] amounted to 26.6 µM.
`COc1ccc(NC(=O)C(=O)c2ccc3c(c2)c2ccccc2n3Cc2ccc(Cl)cc2)cc1`: the IC50 in data set [1] stood at 14.8 µM.
As to `CCn1c2ccccc2c2cc(C(=O)C(=O)Nc3ccccc3)ccc21`, in data set [1], the IC50 turned out to be 24.2 µM.
With `COc1ccc(NC(=O)C(=O)c2ccc3c(c2)c2ccccc2n3Cc2ccc(Cl)cc2)cc1OC`, in [3], the XI50 worked out at 21.9. Moreover, the inhibition result in data set [4] is “Active”. In data set [5], this molecule returned a Ki of 17.5 µM. Besides, the IC50 in data set [1] came out at 6.31 µM.
Consider `Cn1c2ccccc2c2cc(C(=O)C(=O)Nc3ccccc3)ccc21`, for which, in [1], the IC50 was found to be 36.2 µM.
On to `CCn1c2ccccc2c2cc(C(=O)C(=O)Nc3ccc(N(C)C)cc3)ccc21`, for which the IC50 in [1] is 56.2 µM.
On to `O=C(Nc1ccc2ncccc2c1)C(=O)c1ccc2c(c1)c1ccccc1n2Cc1ccc(Cl)cc1`, for which the IC50 in data set [1] worked out at 23 µM.
`COc1ccc(NC(=O)C(=O)c2ccc3[nH]c4ccccc4c3c2)cc1`: in data set [1], the IC50 worked out at 19.3 µM.
Consider `O=C(Nc1ccncc1)C(=O)c1ccc2c(c1)c1ccccc1n2Cc1ccc(Cl)cc1`, for which the IC50 in data set [1] came to 19.9 µM.
`CCCCCCCCCCC[C@@H](C[C@@H]1OC(=O)[C@H]1CCCCCC)OC(=O)[C@H](CC(C)C)NC=O`: in data set [3], the XI50 is 3.14.
As to `O=C(Nc1ccncc1)C(=O)c1ccc2[nH]c3ccccc3c2c1`, the 50% inhibitory concentration (IC50) in [1] is 29.4 µM.
`CC(C)=CCCC1(C)C=Cc2c(c(C)cc3c2[nH]c2ccccc23)O1` (stereo not drawn) [MAHANIMBINE] displayed an IC50 in data set [2] of 17.9 µM.
Consider `COc1cc(NC(=O)C(=O)c2ccc3c(c2)c2ccccc2n3C)cc(OC)c1OC`, for which the IC50 in data set [1] was 23.1 µM.
For `O=C(Nc1ccccc1)C(=O)c1ccc2c(c1)c1ccccc1n2Cc1ccc(Cl)cc1`, the IC50 in [1] is 13.9 µM.

B1: Pancreatic triacylglycerol lipase (Sus scrofa), P00591 (protein)
chain: SEVCFPRLGCFSDDAPWAGIVQRPLKILPWSPKDVDTRFLLYTNQNQNNYQELVADPSTITNSNFRMDRKTRFIIHGFIDKGEEDWLSNICKNLFKVESVNCICVDWKGGSRTGYTQASQNIRIVGAEVAYFVEVLKSSLGYSPSNVHVIGHSLGSHAAGEAGRRTNGTIERITGLDPAEPCFQGTPELVRLDPSDAKFVDVIHTDAAPIIPNLGFGMSQTVGHLDFFPNGGKQMPGCQKNILSQIVDIDGIWEGTRDFVACNHLRSYKYYADSILNPDGFAGFPCDSYNVFTANKCFPCPSEGCPQMGHYADRFPGKTNGVSQVFYLNTGDASNFARWRYKVSVTLSGKKVTGHILVSLFGNEGNSRQYEIYKGTLQPDNTHSDEFDSDVEVGDLQKVKFIWYNNNVINPTLPRVGASKITVERNDGKVYDFCSQETVREEVLLTLNPC
As to B1, the Km (as a rule, the substrate concentration at which the rate is half of its maximum) was 123 µM in data set [6]; 197 µM in [7]; 129 µM in data set [8]; 126 µM in data set [9]; 163 µM in data set [10]; 253 µM in data set [11]. In addition, the Michaelis-Menten constant (Km) turned out to be 179 µM in [12]; 165 µM in data set [13]; 151 µM in data set [14]; 228 µM in [15]; 156 µM in data set [16]; 152 µM in data set [17]. In addition, the Vmax (in general, the rate approached at saturating substrate) in [18] turned out to be 15 µM/min; in data set [19], 15.2 µM/min; in data set [20], 15.2 µM/min; in data set [21] it was 15.5 µM/min.
